Reference: patent US20110071124A1, “Compounds that Inhibit Production of sAPPB and AB and Uses Thereof” (The Trustees of Columbia University in the City of New York, priority 2008, published 2011)

Assays:
[1] = tested on: Aβ40 in SY5Y-BACEGFP-SEAPAPPwt cells; assay: Aβ40 ELISA (BioSource) in SY5Y-BACEGFP-SEAPAPPwt cells; assay type: cell-based; settings: for IC50: SAR study, 8 concentrations (30-0.01 μM), SY5Y-BACEGFP-SEAPAPPwt cells
Method: FIG. 11. 5 LDDN compounds reduce Aβ40 in SYSY-BACEGFP-SEAPAPPwt cells. sAPPβ and 24-hour cell viability was performed as described in Chapter 4.1. Aβ40 ELISA was performed using the Aβ40 ELISA kit (BioSource) according to the manufacturer's protocol. Cell culture media was collected after 6 hours of treatment with 4 concentrations (30, 10, 3, 0.3 μM) of compound and diluted 3:10 prior to loading onto the Aβ ELISA plate. The data points for sAPPβ and Aβ were roughly superimposed. Data points represent mean±s.d. of 3 determinations.
FIG. 13. […] Compounds were tested in SY5Y-BACEGFP-SEAPAPPwt cells using the cell-based BACE1 assay. Select compounds were also investigated for Aβ-lowering effect using a commercial Aβ ELISA kit (BioSource). All compounds were tested at 8 concentrations (30, 10, 3, 1, 0.3, 0.1, 0.03, and 0.01 μM), and data points were analyzed with Origin software and fitted using a logistic model for IC50 determination.
In other non-limiting embodiments, the effective amount of at least one compound of Formulas I-VII, and/or a compound depicted in FIG. 19, may be correlated with the compound's ability to reduce the level of Aβ40 in an in vitro assay that measures the level of Aβ40 produced in a cell line, for example, an SY5Y-BACEGFP-SEAPAPPwt cell line. In one non-limiting example, the level of Aβ40 expressed by the cell line may be measured through the use of an Aβ40 Elisa kit (Bio Source). In one embodiment, the assay comprises incubating the Aβ40 expressing cells with a compound of Formulas I-VII, and/or a compound depicted in FIG. 19, followed by assaying the concentration of Aβ40 in the cell media. In such an assay, a greater reduction of Aβ40 concentration in the cell media following incubation with a compound compared to a control cell line not contacted with the compound is correlative with the compound's therapeutic efficacy.
The 15 LDDN compounds were tested in SY5Y-BACEGFP-SEAPAPPwt cells for their ability to reduce Aβ40 using a commercial Aβ40 ELISA kit (BioSource). SY5Y-BACEGFP-SEAPAPPwt cells were grown to 100% confluence and incubated with 4 concentrations of each compound (30, 10, 3, 0.3 μM). Cell culture media was collected after 6 hours of compound incubation and diluted 3:10 in sample diluent supplied in the Aβ40 ELISA kit. Aβ ELISA was performed according to the manufacturer's protocol. […] LDN-0057228 and LDN-0069630 are small molecules with ample chemical space for modification, and are thus considered good candidates for medicinal chemistry.
27 structural analogs of LDN-0057228 were synthesized and tested using the cell-based BACE1 assay in SY5Y-BACEGFP-SEAPAPPwt cells (FIG. 13). 4 analogs, in addition to the parent compound, were also assessed for Aβ40 lowering activity using a commercial Aβ kit (BioSource). Because LDN-0057228 resembles CNS monoamine transporter inhibitors, this analog series was given the designation “CNS.” LDN-0057228 gave an unexpectedly low potency (IC50˜20 μM for both sAPPβ and Aβ40 reduction) compared to the ˜7 μM potency obtained using the same compound in FIG. 8.

[2] = tested on: Aβ40 in Lenti-APPsw infected primary cortical neurons; assay: Aβ40 ELISA in Lenti-APPsw infected primary cortical neurons; assay type: cell-based, mouse; settings: 24 hours
Method: FIG. 15A-D. LDN-0057228 reduces Aβ40 and sAPPβ in primary neurons. DIV-14 primary cortical neurons from wild-type mice were incubated for 24 hours with primary culture media containing lentivirus harboring APPsw. After infection, neurons were incubated for 48 hours with 1:1 fresh to conditioned media to allow for APP expression. Neurons were then treated with LDN-0057228 at 20 μM for 24 hours in triplicate. A) Media was collected for Aβ40 ELISA. Raw Aβ40 values were normalized to APP to control for variations in lentiviral infection efficiency. B) Cell lysates were probed with 6E10 antibody to visualize the transduced full-length APP. C) sAPPβ from neuron culture media was immunoprecipitated with sβsw antibody and probed with LN27. D) Quantification of sAPPβ, normalized to APP. Data in A) and […]) represent mean+s.d. of 3 wells. Bands from B) and C) were quantified using ImageJ software.
FIG. 16A-B. CNS-2 and LDN-0057228 reduce Aβ40 in primary neurons. DIV-14 primary cortical neurons from wild-type mice were incubated for 24 hours with primary culture media containing lentivirus harboring APPsw. After infection, neurons were incubated for 48 hours with 1:1 fresh to conditioned media to allow for APP expression. Neurons were then treated for 24 hours with the indicated compound and concentration. A) Media was collected for Aβ40 ELISA. Raw Aβ40 values were normalized to APP to control for variations in lentiviral infection efficiency. B) Cell lysates were probed with 6E10 antibody to visualize the transduced full-length APP.
Lenti-APPsw infected primary cortical neurons were selected for the initial round of physiological experiments due to the relatively large batches of wild-type primary cortical neurons that were routinely harvested in the lab, the ease of lentiviral packaging. Primary cortical neurons were harvested from wild-type P0 pups using established protocols.
The Lenti-APPsw vector was co-transfected into HEK293 T cells with ViraPower packaging mix (Invitrogen) to generate the lentivirus. Lentiviral-mediated transduction of APPsw in primary neurons was performed by adding neuron primary culture media containing the lentiviral particles to wild-type DIV-14 primary neurons (FIG. 14). After 24 hours, neurons were incubated with media for 72 hours prior to collecting for Aβ40 measurement. Two batches of virus (LV-1 and LV-2) were tested, showing that there is batch-to-batch variation in the viral titer.
Using this experimental paradigm, LDN-0057228 was tested at 20 μM concentration to confirm the sAPPβ- and Aβ-lowering activity of the compound (FIG. 15). The protocol was modified slightly to allow for 24-hour compound treatment. […]

[3] = weight and overt toxicity in treated Tg2576 mice; assay type: in vivo; settings: 3 mg/kg intraperitoneal, 9 days
Method: A total of 16 mice were treated with either DMSO (n=8) or 3 mg/kg CNS-2 (n=8). The dosage was selected arbitrarily based on compound solubility in 0.9% normal saline. CNS-2 was dissolved in 0.9% normal saline solution with 1.9% final DMSO concentration. 12- to 13-month old Tg2576 mice were treated with DMSO or CNS-2 via intraperitoneal injection for 9 days (1 injection per day) at an injection volume of 20 μl per gram of weight. Mouse weight was monitored daily, and the total injection volume adjusted accordingly over the course of the 9-day treatment. […] Mice were sacrificed on day 9, 5 hours after the final injection. One hemibrain from each mouse was homogenized and processed for formic acid extraction of plaque Aβ. Total Aβ40 was determined by Aβ ELISA kit and normalized to total protein (FIG. 18).

| SMILES | dose-dependent decrease in Aβ40 ([1]; 4 concentrations (30, 10, 3, 0.3 μM), 6 hours) | IC50 [1] | reduction in Aβ40 levels ([2]; 20 μM, normalized to APP) | changes in weight and overt signs of toxicity [3] | reduction in Aβ40 ([2]; 5 μM) |
| --- | --- | --- | --- | --- | --- |
| Fc1ccc(C(OCCN2CCC[C@H]2CNCCc2ccccc2)c2ccc(F)cc2)cc1 [LDN-0057228] | caused a dose-dependent decrease in Aβ40 | ~20 µM | 75% | – | – |
| O=C(CCc1ccccc1)NC[C@@H]1CCCN1CCOC(c1ccc(F)cc1)c1ccc(F)cc1 [CNS-2] | – | 5 µM | – | Neither the treated nor control groups exhibited any significant changes in weight or any overt signs of toxicity | > 80% |
